Experimental findings from ChEMBL document CHEMBL1212732, “Conformational inhibition of the hepatitis C virus internal ribosome entry site RNA” (Nat Chem Biol, 2009) are described below.

pEC50, pIC50, pKd: −log10 of the molar value. Activity calls are given as the source filed them. The rule behind the calls is not given here.

For data set [1], the system named is Hepatitis C virus. Put plainly: Inhibition of HCV 1b replicon translation in human HuH7 cells transfected with BM4-5 FEO HCV replicon RNA after 4 hrs by luciferase reporter assay. Particulars: genotype 1b, Huh-7, 4 h. Format: functional, organism-based, Hepacivirus hominis.
Data set [2] in a line: Cytotoxicity against human HuH7 cells at 0.25-25 uM after 48 hrs by colorimetric viability assay. Type of data set: cell-based. The note with it: huh-7, 48 h.
Data set [3] has as its system Hepacivirus hominis. As to the kind of experiment: Inhibition of HCV NS5B RNA dependent RNA polymerase after 24 mins.
Data set [4] addresses Internal ribosome entry site (IRES). As to the kind of experiment: Binding affinity to HCV 2AP54-labelled IRES subdomain 2a RNA A54G mutant in presence of 1 mM Mg2+ by FRET assay. Type of data set: nucleic-acid assay, Hepacivirus hominis.
Data set [5] shares this target. Put plainly: Binding affinity to HCV 2AP54-labelled IRES subdomain 2a RNA C58A mutant in presence of 1 mM Mg2+ by FRET assay. Type of data set: nucleic-acid assay, Hepacivirus hominis.
For data set [6] the target is unchanged. As to the kind of experiment: Binding affinity to HCV 2AP54-labelled IRES subdomain 2a RNA by mass spectrometry. Format: nucleic-acid assay, Hepacivirus hominis.
Data set [7] has as its system Internal ribosome entry site (IRES). Put plainly: Binding affinity to HCV 2AP54-labelled IRES subdomain 2a RNA in presence of Mg2+ by FRET assay in presence of eukaryotic tRNA. The note with it: Hepacivirus hominis. Format: nucleic-acid assay.
For data set [8] the test system is unchanged. As to the kind of experiment: Binding affinity to HCV 2AP54-labelled IRES subdomain 2a RNA in presence of Mg2+ by FRET assay. Format: nucleic-acid assay. The note with it: Hepacivirus hominis.
Data set [9] concerns Hepacivirus hominis. Put plainly: Inhibition of HCV NS5B RNA dependent RNA polymerase after 60 mins.
Data set [10] deals with Internal ribosome entry site (IRES). As to the kind of experiment: Binding affinity to HCV 2AP54-labelled IRES subdomain 2a RNA A57U mutant in presence of 1 mM Mg2+ by FRET assay. Type of data set: nucleic-acid assay, Hepacivirus hominis.
The subject of data set [11] is Internal ribosome entry site (IRES). Put plainly: Binding affinity to HCV Cy3/Cy5-labelled IRES subdomain 2a RNA by FRET assay. Type of data set: nucleic-acid assay. Particulars: Hepacivirus hominis.
For data set [12], the target named is Internal ribosome entry site (IRES). As to the kind of experiment: Binding affinity to HCV 2AP54-labelled IRES subdomain 2a RNA C55A mutant in presence of 1 mM Mg2+ by FRET assay. Type of data set: nucleic-acid assay, Hepacivirus hominis.
Data set [13] shares this target. Put plainly: Binding affinity to HCV 2AP54-labelled IRES subdomain 2a RNA C55U mutant in presence of 1 mM Mg2+ by FRET assay. Type of data set: nucleic-acid assay, Hepacivirus hominis.
Data set [14] deals with Hepatitis C virus. As to the kind of experiment: Inhibition of HCV 1b replicon translation in human HuH7 cells transfected with BM4-5 FEO HCV replicon RNA after 8 hrs by luciferase reporter assay. Type of data set: functional, organism-based, Hepacivirus hominis. Particulars: genotype 1b, Huh-7, 8 h. In general terms: A replicon is a self-replicating genome or part of one, used to study replication in cells.

Data set [15] has as its target Internal ribosome entry site (IRES). As to the kind of experiment: Binding affinity to HCV 2AP54-labelled IRES subdomain 2a RNA U56G/A57U mutant in presence of 1 mM Mg2+ by FRET assay. Type of data set: nucleic-acid assay, Hepacivirus hominis.
Data set [16] has the same target. Put plainly: Binding affinity to HCV 2AP54-labelled IRES subdomain 2a RNA in presence of 1 mM Mg2+ by FRET assay. Format: nucleic-acid assay, Hepacivirus hominis.
Data set [17] has the same target. As to the kind of experiment: Binding affinity to HCV 2AP54-labelled IRES subdomain 2a RNA in presence of 0.3 mM Mg2+ by FRET assay. Type of data set: nucleic-acid assay, Hepacivirus hominis.
Data set [18] concerns Hepatitis C virus. Put plainly: Inhibition of HCV 1b replicon translation in human HuH7 cells transfected with BM4-5 FEO HCV replicon RNA A57U mutant by luciferase reporter assay relaitv to wild type. Format: functional, Hepacivirus hominis, genotype 1b, Huh-7.
For data set [19], the system named is Hepatitis C virus. As to the kind of experiment: Inhibition of HCV 1b replicon translation in human HuH7 cells transfected with BM4-5 FEO HCV replicon RNA after 48 hrs by luciferase reporter assay. Type of data set: functional, organism-based, Hepacivirus hominis. The note with it: genotype 1b, Huh-7, 48 h.

As for `CN(C)CC1COc2ccc3nc4n(c3c2C1)CC(CN(C)C)CN4` (stereo not given), the negative logarithm of the IC50 (pIC50) with Hepatitis C virus [1] was 5.40; in the data set on Hepatitis C virus [14] it was 5.02; in the data set with Hepatitis C virus [19] it was 5.70. In addition, the Activity entry in data set [2] was “Toxic”; in data set [8], “Dose-dependent effect”. Also, the inhibition entry in the data set with Hepacivirus hominis [3] and in the data set with Hepacivirus hominis [9] was “Active” each time. Moreover, the pEC50 in [4] is 6.31; in [5] it was 6.12; in data set [10], 5.38; in data set [12], 6.19; in data set [13], 6.49; in data set [15] it was 5.39. For the same compound, the negative-log EC50 (pEC50) in data set [16] was 6.22; in data set [17], 6.59. The compound also gave a pKd in data set [6] of 6.14. Also, the result in [7] was Active. The result in data set [11] was inactive. Also, the “inhibition (INH)” value in the data set with Hepatitis C virus [18] stood at 15%.
Take `CN(C)CC(CO)Cn1c(N)nc2ccc3c(c21)CC(CO)CO3` (stereo not given): the negative-log EC50 (pEC50) in data set [16] is 4.05.

Broadly, the pIC50 is the IC50 on a negative log10 scale, so that one unit is a factor of ten. Low values mean a large IC50, high ones a small IC50. In general, pEC50 refers to −log10 of the EC50, conventionally taken in molar units. Usually pKd stands for the Kd on a negative log10 scale, so that one unit is a factor of ten. A high value points to a small Kd.
